The test system of this series is rodent lifetime carcinogenesis bioassay, tumor incidence TD50. Nature of the series: chronic cancer bioassays in animals – CPDB, compiled studies (AID 1745844).

Active and inactive are the calls of the source. How the calls were made is not given here.

As to `CN(N=O)C(N)=O`, the TD50 (as a rule, the 50% point of the dose-response relation for the toxic effect studied) is 19.1 mg/kg/day (monkey, strain Cynomolgus [Macaca fascicularis], both sexes, in feed, site: any site (literature study), lesion: benign tumor, dosed 928 weeks, study length 1135 weeks); 4 mg/kg/day (monkey, strain Cynomolgus [Macaca fascicularis], both sexes, in feed, site: any site (literature study), lesion: malignant tumor, dosed 928 weeks, study length 1135 weeks); 2.64 mg/kg/day (monkey, strain Cynomolgus [Macaca fascicularis], both sexes, in feed, site: any site (literature study), lesion: several types, types named in the paper, dosed 928 weeks, study length 1135 weeks); 34.5 mg/kg/day (monkey, strain Cynomolgus [Macaca fascicularis], both sexes, in feed, site: colon, lesion: leiomyosarcoma, dosed 928 weeks, study length 1135 weeks); 7.71 mg/kg/day (monkey, strain Cynomolgus [Macaca fascicularis], both sexes, in feed, site: esophagus, lesion: several types, types named in the paper, dosed 928 weeks, study length 1135 weeks); 10.5 mg/kg/day (monkey, strain Cynomolgus [Macaca fascicularis], both sexes, in feed, site: esophagus, lesion: squamous-cell carcinoma, dosed 928 weeks, study length 1135 weeks). Also, the TD50 runs as follows: (monkey, strain Cynomolgus [Macaca fascicularis], both sexes, in feed, site: esophagus, lesion: squamous-cell papilloma, dosed 928 weeks, study length 1135 weeks) 29.2 mg/kg/day; (monkey, strain Cynomolgus [Macaca fascicularis], both sexes, in feed, site: heart, lesion: rhabdomyoblastoma, dosed 928 weeks, study length 1135 weeks) 66.3 mg/kg/day; (monkey, strain Cynomolgus [Macaca fascicularis], both sexes, in feed, site: oral cavity, lesion: several types, types named in the paper, dosed 928 weeks, study length 1135 weeks) 2.65 mg/kg/day; (monkey, strain Cynomolgus [Macaca fascicularis], both sexes, in feed, site: palate, soft, lesion: squamous-cell carcinoma, dosed 928 weeks, study length 1135 weeks) 7.95 mg/kg/day; (monkey, strain Cynomolgus [Macaca fascicularis], both sexes, in feed, site: pharynx, lesion: squamous-cell carcinoma, dosed 928 weeks, study length 1135 weeks) 82.2 mg/kg/day; (monkey, strain Cynomolgus [Macaca fascicularis], both sexes, in feed, site: skull, lesion: rhabdomyosarcoma, dosed 928 weeks, study length 1135 weeks) 23.9 mg/kg/day. Besides, the TD50 is, setting by setting: (monkey, strain Cynomolgus [Macaca fascicularis], both sexes, in feed, site: stomach, lesion: adenocarcinoma, dosed 928 weeks, study length 1135 weeks) 66.3 mg/kg/day; (monkey, strain Cynomolgus [Macaca fascicularis], both sexes, in feed, site: tongue, lesion: squamous-cell papilloma, dosed 928 weeks, study length 1135 weeks) 7.95 mg/kg/day; (monkey, strain Cynomolgus [Macaca fascicularis], both sexes, in feed, site: upper gastrointestinal tract, lesion: squamous-cell carcinoma, dosed 928 weeks, study length 1135 weeks) 4.52 mg/kg/day; (monkey, strain Rhesus [Macaca mulatta], both sexes, in feed, site: any site (literature study), lesion: malignant tumor, dosed 928 weeks, study length 1139 weeks) 6.75 mg/kg/day; (monkey, strain Rhesus [Macaca mulatta], both sexes, in feed, site: cheek pouch, lesion: squamous-cell carcinoma, dosed 928 weeks, study length 1139 weeks) 95.6 mg/kg/day; (monkey, strain Rhesus [Macaca mulatta], both sexes, in feed, site: epiglottis, lesion: squamous-cell carcinoma, dosed 928 weeks, study length 1139 weeks) 42.8 mg/kg/day. The TD50 (monkey, strain Rhesus [Macaca mulatta], both sexes, in feed, site: esophagus, lesion: squamous-cell carcinoma, dosed 928 weeks, study length 1139 weeks) is 8.2 mg/kg/day; the TD50 (monkey, strain Rhesus [Macaca mulatta], both sexes, in feed, site: gingiva, lesion: squamous-cell carcinoma, dosed 928 weeks, study length 1139 weeks) is 62.6 mg/kg/day; the TD50 (monkey, strain Rhesus [Macaca mulatta], both sexes, in feed, site: larynx, lesion: squamous-cell carcinoma, dosed 928 weeks, study length 1139 weeks) was determined as 95.6 mg/kg/day; the TD50 (monkey, strain Rhesus [Macaca mulatta], both sexes, in feed, site: oral cavity, lesion: several types, types named in the paper, dosed 928 weeks, study length 1139 weeks) is 15.7 mg/kg/day; the TD50 (monkey, strain Rhesus [Macaca mulatta], both sexes, in feed, site: palate, soft, lesion: squamous-cell carcinoma, dosed 928 weeks, study length 1139 weeks) was found to be 102 mg/kg/day; the TD50 (monkey, strain Rhesus [Macaca mulatta], both sexes, in feed, site: pharynx, lesion: squamous-cell carcinoma, dosed 928 weeks, study length 1139 weeks) was determined as 44.2 mg/kg/day. In addition, the TD50 by setting is: (monkey, strain Rhesus [Macaca mulatta], both sexes, in feed, site: stomach, lesion: adenocarcinoma, dosed 928 weeks, study length 1139 weeks) 42.8 mg/kg/day; (monkey, strain Rhesus [Macaca mulatta], both sexes, in feed, site: tongue, lesion: squamous-cell carcinoma, dosed 928 weeks, study length 1139 weeks) 72.9 mg/kg/day; (monkey, strain Rhesus [Macaca mulatta], both sexes, in feed, site: upper gastrointestinal tract, lesion: squamous-cell carcinoma, dosed 928 weeks, study length 1139 weeks) 7.18 mg/kg/day; (mouse, strain C3H (MTV+), males, in drinking water, site: liver, lesion: neoplastic nodule, dosed 30 weeks, study length 54 weeks) 2.53 mg/kg/day; (mouse, strain C3H (MTV+), males, in drinking water, site: lung, lesion: adenoma, dosed 30 weeks, study length 54 weeks) 0.794 mg/kg/day; (mouse, strain C3H (MTV+), males, in drinking water, site: spleen, lesion: hemangioendothelial sarcoma, dosed 30 weeks, study length 54 weeks) 1.23 mg/kg/day. The TD50 is 6.19 mg/kg/day (mouse, strain C3H (MTV+), males, in drinking water, site: stomach, glandular, lesion: adenocarcinoma, dosed 30 weeks, study length 54 weeks); 0.0927 mg/kg/day (rat, strain Fischer 344, males, by gavage, site: forestomach, lesion: one or several types, types not named, dosed 28 weeks, study length 104 weeks); 11.6 mg/kg/day (rat, strain Fischer 344, males, by gavage, site: liver, lesion: one or several types, types not named, dosed 28 weeks, study length 104 weeks); 0.357 mg/kg/day (rat, strain Fischer 344, males, by gavage, site: lung, lesion: several types, types named in the paper, dosed 28 weeks, study length 104 weeks); 2.03 mg/kg/day (rat, strain Fischer 344, males, by gavage, site: nervous system, lesion: several types, types named in the paper, dosed 28 weeks, study length 104 weeks).

On to `CCC[CH2][Sn]([CH2]CCC)([O]C(C)=O)[O]C(C)=O`, for which the TD50 is, setting by setting: (mouse, strain B6C3F1, females, in feed, site: any site (literature study), lesion: several types, types named in the paper, dosed 78 weeks, study length 92 weeks) 29.6 mg/kg/day; (mouse, strain B6C3F1, females, in feed, site: liver, lesion: hepatocellular adenoma + hepatocellular carcinoma + neoplastic nodule, dosed 78 weeks, study length 92 weeks) 31.6 mg/kg/day; (mouse, strain B6C3F1, females, in feed, site: liver, lesion: hepatocellular adenoma, dosed 78 weeks, study length 92 weeks) 31.6 mg/kg/day (inactive); (mouse, strain B6C3F1, males, in feed, site: any site (literature study), lesion: several types, types named in the paper, dosed 78 weeks, study length 92 weeks) 178 mg/kg/day (inactive); (mouse, strain B6C3F1, males, in feed, site: liver, lesion: hepatocellular adenoma + hepatocellular carcinoma + neoplastic nodule, dosed 78 weeks, study length 92 weeks) 29.2 mg/kg/day; (rat, strain Fischer 344, females, in feed, site: liver, lesion: hepatocellular adenoma + hepatocellular carcinoma + neoplastic nodule, dosed 78 weeks, study length 104 weeks) 94.4 mg/kg/day. For the same molecule, the carcinogen call (rat, strain Fischer 344, males, in feed, site: any site (literature study), lesion: several types, types named in the paper, dosed 78 weeks, study length 104 weeks) was “negative (inactive)”.

With `C=CCOc1ccc(CC(=O)O)cc1Cl`, the carcinogen call (rat, strain Wistar, females, in feed, site: any site (literature study), lesion: several types, types named in the paper, dosed 104 weeks, study length 104 weeks) was “negative (inactive)”; the carcinogen call (rat, strain Wistar, females, in feed, site: liver, lesion: several types, types named in the paper, dosed 104 weeks, study length 104 weeks) was “negative (inactive)”; the carcinogen call (rat, strain Wistar, males, in feed, site: any site (literature study), lesion: several types, types named in the paper, dosed 104 weeks, study length 104 weeks) is “negative (inactive)”; the carcinogen call (rat, strain Wistar, males, in feed, site: liver, lesion: several types, types named in the paper, dosed 104 weeks, study length 104 weeks) is “negative (inactive)”. The TD50 (rat, strain Wistar, females, in feed, site: ovary, lesion: several types, types named in the paper, dosed 104 weeks, study length 104 weeks) was 390 mg/kg/day (inactive).

In the case of `NC(=S)C(N)=S`, the TD50 (rat, strain Charles River CD (Sprague-Dawley), females, in feed, site: mammary gland, lesion: one or several types, types not named, dosed 78 weeks, study length 104 weeks) was 12.6 mg/kg/day.

The values above are taken from PubChem BioAssay AID1745844 (Carcinogenic Potency Database (CPDB), 2022).
